Laboratory results reported in patent EP1285920A1, “C10 Ester sustituted taxanes as antitumor agents” (Florida State University Research Foundation, Inc., priority 2001, dated 2003).
Where two headings read alike, the source gives them in different places.

What was measured:
A375 melanoma = conditions: for Mean Score: tumor scoring system
Method: Dosing was initiated on Day 1. […] Taxotere was given i.v. on a qd x 1 schedule at a dose of 70 mg/kg. […] The study was terminated on Day 60. Treatment groups are detailed in Table 9.

A2780 ovarian carcinoma = conditions: for Mean Score: tumor scoring system
Method: Dosing was initiated on Day 1. […] Taxotere was given i.v. on a qd x 1 schedule at a dose of 70 mg/kg. […] The study was terminated on Day 60. Treatment groups are detailed in Table 7.

HCT116 carcinoma = tested on: HCT116 carcinoma
Outline: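 Mice bearing HCT116 tumours received a single i.v. maximum tolerated dose per compound, formulated in 5% ethanol, 5% Cremophor, 90% isotonic saline. Study ended on Day 60; complete response meant no palpable tumour at study end.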

SK-MES carcinoma = experiment: In vivo evaluation against SK-MES human lung carcinoma xenograft (i.v., Example 11); conditions: SK-MES
Method: Antitumor compounds were formulated for an i.v. dosing regime prepared in the following vehicle: 10% ethanol, 10% Cremophor and 80% isotonic saline.
Vehicle control animals were dosed twice intravenously with half the total volume being given separated by one hour. The study was terminated on Day 60.
A complete response is obtained if the tumor is not palpable at the end of the study.
A tumor scoring system was designed to provide a more quantitative ranking of efficacy (therapeutic potential) among the antitumor agents evaluated against the different human solid tumor xenografts. Each mouse in a study was given a score of from 1 to 10 at the end of the study. The scores can be summarized as follows:
The individual score for each mouse was averaged into a mean score for each treatment group. […]

HCT116 = experiment: In Vitro cytotoxicity measured by the cell colony formation assay; format: cell-based, human; conditions: Homo sapiens, HCT-116; read-out: IN VITRO ID 50 HCT116
Outline: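 Four hundred cells per dish in McCoy's 5a medium with 10% FBS were allowed to attach for 5 h at 37 °C. They were then exposed to compound for 72 h at 37 °C, added as a 10× stock made fresh in medium. After HBSS rinsing and refeeding, colonies were counted after 7 days.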

[1] = number of mice, i.v. qd x 1 at estimated MTD (Taxol 24 mg/kg, Taxotere 70 mg/kg), 6 mice/group (Taxotere 7), Day 60
[2] = number of mice, Taxol i.p. qd x 5, 15 mg/kg daily, 5 mice
[3] = number of mice, i.v. qd x 1 at estimated MTD (Taxol 24 mg/kg, Taxotere 70 mg/kg, 0983 72.6 mg/kg), 5 mice/group (Taxotere 6), Day 60
[4] = HCT116, Taxol i.p. 18 mg/kg qd x 5 (Group 3)
[5] = number of 5 mice, Taxol 18 mg/kg i.p. qd x 5

CC(=O)O[C@H]1C(=O)[C@@]2(C)[C@H]([C@H](OC(=O)c3ccccc3)[C@]3(O)C[C@H](OC(=O)[C@H](O)[C@@H](NC(=O)c4ccccc4)c4ccccc4)C(C)=C1C3(C)C)[C@]1(OC(C)=O)CO[C@@H]1C[C@@H]2O [Taxol, paclitaxel, reference compound]
Toxic Deaths (A375 melanoma; number of mice, i.v. qd x 1 at estimated MTD (Taxol 24 mg/kg, Taxotere 70 mg/kg), 6 mice/group (Taxotere 7)): 2 | Complete Response (A375 melanoma; [1]): 0 | Partial Response (A375 melanoma; [1]): 0 | Stable Disease (A375 melanoma; [1]): 0 | Survivors (A375 melanoma; [1]): 0 | Mean Score (A375 melanoma; Taxol i.p. qd x 5, 18 mg/kg daily, 6 mice): 0 ± 0 | Mean Score (A375 melanoma; i.v. qd x 1 at estimated MTD (Taxol 24 mg/kg, Taxotere 70 mg/kg), 6 mice/group (Taxotere 7)): 0.8 ± 0.3 | toxicity (A2780 ovarian carcinoma; A2780, Taxol i.p. 15 mg/kg qd x 5 (Group 3)): highly toxic | mice succumbed to drug-related side effects (A2780 ovarian carcinoma; A2780, Taxol i.p. 15 mg/kg qd x 5 (Group 3), five mice): four | antitumor activity (A2780 ovarian carcinoma; A2780, i.v. qd x 1): moderately efficacious | survival extension compared to Group 1 controls (A2780 ovarian carcinoma; A2780, i.v. qd x 1): 87% | MDS (A2780 ovarian carcinoma; A2780, i.v. qd x 1 (compounds estimated MTD; Taxol 24 mg/kg split; Taxotere 70 mg/kg), days until tumor 2.0 g, ended Day 60): 21.9 days | Stable Disease (A2780 ovarian carcinoma; A2780, i.v. qd x 1, five mice per group): One | MDS (n) (A2780 ovarian carcinoma; mean days of survival until neoplasm reached 2.0 g, i.v. qd x 1 at estimated MTD (Taxol 24 mg/kg, Taxotere 70 mg/kg, 0983 72.6 mg/kg), 5 mice/group (Taxotere 6), terminated Day 60): 21.9 ± 5.5 (5) days | Complete Response (A2780 ovarian carcinoma; [2]): 0 | Partial Respons (A2780 ovarian carcinoma; [2]): 0 | Stable Disease (A2780 ovarian carcinoma; [2]): 0 | Survivors (A2780 ovarian carcinoma; [2]): 0 | Toxic Deaths (A2780 ovarian carcinoma; [2]): 4 | Toxic Deaths (A2780 ovarian carcinoma; number of mice, i.v. qd x 1 at estimated MTD (Taxol 24 mg/kg, Taxotere 70 mg/kg, 0983 72.6 mg/kg), 5 mice/group (Taxotere 6)): 0 | Complete Response (A2780 ovarian carcinoma; [3]): 0 | Partial Respons (A2780 ovarian carcinoma; [3]): 0 | Stable Disease (A2780 ovarian carcinoma; [3]): 0 | Survivors (A2780 ovarian carcinoma; [3]): 1 | Mean Score (A2780 ovarian carcinoma; Taxol i.p. qd x 5, 15 mg/kg daily, 5 mice): 0.6 ± 0.6 | Mean Score (A2780 ovarian carcinoma; i.v. qd x 1 at estimated MTD (Taxol 24 mg/kg, Taxotere 70 mg/kg, 0983 72.6 mg/kg), 5 mice/group (Taxotere 6)): 1.8 ± 0.4 | increase in survival compared to control Group 1 (HCT116 carcinoma; HCT116, Taxol 36 mg/kg i.v. qd x 1): 24% | Partial Response (HCT116 carcinoma; [4]): one | survival extension compared to Group 1 control mice (HCT116 carcinoma; [4]): 84% | MDS (HCT116 carcinoma; HCT116, i.v. qd x 1 (compounds single MTD; Taxol 36 mg/kg split), days until tumor 2.0 g, ended Day 60): 27.5 days | Stable Disease (HCT116 carcinoma; HCT116, i.v. qd x 1, five mice per group): one | Mean Score (HCT116 carcinoma; Taxol 18 mg/kg i.p. qd x 5, 5 mice): 3.6 ± 1.4 | Mean Score (HCT116 carcinoma; i.v. qd x 1 at MTD, 5 mice/group, Day 60, doses as in E3): 2.2 ± 0.5 | MDS (n) (HCT116 carcinoma; mean days of survival until tumor reached 2.0 g, i.v. qd x 1 at MTD, 5 mice/group, study ended Day 60, mg/kg: Taxol 36 (split doses), 0503 72.6, 0536 49, 0663 159, 0670 123, 0687 159, 0706 108, 0908 159, 0947 76.9, 0951 72.6, 0983 72.6, 0999 49, 1003 49, 1011 108): 27.5 ± 1.7 (4) days | tolerability (HCT116 carcinoma; mouse, in vivo, iv): well-tolerated | Stable Disease (HCT116 carcinoma; number of 5 mice, tumor did not reach 2.0 g by end of study, i.v. qd x 1 at MTD, Day 60, doses as in E3): 1 | Complete Response (HCT116 carcinoma; number of 5 mice, tumor not palpable at end of study, i.v. qd x 1 at MTD, Day 60, doses as in E3): 0 | Partial Response (HCT116 carcinoma; number of 5 mice, tumor smaller than on Day 1, i.v. qd x 1 at MTD, Day 60, doses as in E3): 0 | Complete Response (HCT116 carcinoma; [5]): 0 | Partial Response (HCT116 carcinoma; [5]): 1 | Stable Disease (HCT116 carcinoma; [5]): 0 | Survivors (HCT116 carcinoma; [5]): 1 | Toxic Deaths (HCT116 carcinoma; [5]): 0 | Survivors (HCT116 carcinoma; number of 5 mice, i.v. qd x 1 at MTD, Day 60, doses as in E3): 1 | Toxic Deaths (HCT116 carcinoma; number of 5 mice, i.v. qd x 1 at MTD, Day 60, mg/kg: Taxol 36 (split doses), 0503 72.6, 0536 49, 0663 159, 0670 123, 0687 159, 0706 108, 0908 159, 0947 76.9, 0951 72.6, 0983 72.6, 0999 49, 1003 49, 1011 108): 0 | survival extension compared to vehicle controls (SK-MES carcinoma; Taxol 36 mg/kg i.v.): 30% | MDS (n) (SK-MES carcinoma; i.v. MTD in two half doses one hour apart, qd x 1, Taxol 36 mg/kg, 0503 72.1 mg/kg, days until tumor 1.5 g, ended Day 60): 16 ± 2.0 (6) days | Toxic Deaths (SK-MES carcinoma; i.v. split dose qd x 1, six mice per group): 0 | Survivors (SK-MES carcinoma; i.v. split dose qd x 1, six mice per group, Day 60): 0 | Stable Disease (SK-MES carcinoma; i.v. split dose qd x 1, tumor below 1.5 g at termination): 0 | Complete Response (SK-MES carcinoma; i.v. split dose qd x 1, tumor not palpable at end of study): 0 | Partial Response (SK-MES carcinoma; i.v. split dose qd x 1, tumor smaller than on Day 1): 0 | Mean Score (SK-MES carcinoma; tumor score 1 to 10 per mouse, group mean): 1.3 ± 0.3 | IC50 (HCT116): 2.1 nM
